The values that follow come from patent publication US12606798B2, “Methods and materials for hematoendothelial differentiation of human pluripotent stem cells under defined conditions” (WISCONSIN ALUMNI RESEARCH FOUNDATION, priority 2013, dated 2026).

Common to all, as to type: cell-based, human
The test system of one experiment is H1 hESCs. Put plainly: Hematopoietic differentiation of H1 hESCs in chemically defined conditions with TGFβ inhibitor, flow cytometry. How it is done:
(§1) Human pluripotent stem cells were detached from vitronectin or matrigel when they reached 80% confluency using 1× TrypLE (Life Technologies) and plated at an optimized density ranging from 5000 cells/cm^2 to 15,000 cells/cm^2 depending on the cell line onto 6-well plates coated with 0.5 μg/cm^2 of ColIV (Sigma-Aldrich) or 0.5 μg/cm^2 Tenascin-C (Millipore) in E8 media supplemented with 10 μM Rho Kinase inhibitor (Tocris Y-27632). After 24 hours (day 0), the media was changed to IF9S media supplemented with 50 ng/ml BMP4 (Peprotech), 15 ng/ml Activin A (Peprotech), 50 ng/ml FGF2 (Miltenyi Biotech), 2 mM LiCl (Sigma), and on occasion, 1 μM Rho Kinase inhibitor to increase cell viability. On day 2, the media was changed to IF9S media supplemented with 50 ng/ml FGF2 and 50 ng/ml VEGF, and 10 μM SB-431542 (Tocris) where mentioned. On day 4, the media was changed to IF9S media supplemented with 50 ng/ml FGF2, VEGF, TPO, SCF, IL-6, and 10 ng/ml IL-3. On day 6, additional IF9S media supplemented with the same 6 factors were added to the cultures without aspirating the old media (Table 3 Table 3). IF9S (IMDM/F12 with 9 supplements) was made in-house with the following: 50% IMDM 50% F12 (Life Technologies) supplemented with 64 mg/L L-ascorbic Acid 2-Phosphate Mg2+ salt (Sigma-Aldrich), 40 ul/L monothioglycerol (Sigma-Aldrich), 8.4 μg/L additional sodium selenite (Sigma-Aldrich), 10 mg/L polyvinyl alcohol (Sigma-Alderich), 1× glutamax (Life Technologies), 1× non-essential amino acids (Life Technologies), 0.1× chemically defined lipid concentrate (Life Technologies), 10.6 mg/L Holo-Transferrin (Sigma-Aldrich), and 20 mg/L Insulin (Sigma-Aldrich) (Table 2). Differentiation was conducted in hypoxic condition from day 0 to day 5, and transferred to normoxic condition from day 6 to day 9 (FIG. 1). The 1× TrypLE was used to dissociate and collect cells for analysis. Flow Cytometry was conducted using the using a FACSCalibur flow cytometer and following antibodies: CD31-FITC (clone WM59), CD34-FITC (8G12), CD41a-FITC/APC (clone HIPS), CD43-FITC/PE/APC (clone 1G10), CD45-APC (clone HI30), CD73-FITC/PE (clone AD2), CD144-FITC/PE/AlexaFluor647 (clone 55-7H1), CD235a-FITC/PE/APC (clone GA-R2), KDR-PE/AlexaFluor647 (clone 89106), PDGFRα-PE (clone aR1) (BD Biosciences), TRA-1-85-FITC/PE (clone TRA-1-85), and APLNR-APC (clone 72133) (R&D Systems). Sorting was conducted on a FACS Aria, as described previously 46. The purity of isolated populations was 92-95%. Recent studies have shown that adding TGF-β inhibitors after mesoderm specification but before endothelial development increases definitive hematopoietic differentiation.
(In general: In flow cytometry, cells or beads pass a laser one at a time.)

The test system of experiment [1] is hESCs. Nature of the experiment: hPSC hematoendothelial differentiation on ColIV vs TenC in chemically defined conditions, flow cytometry. The procedure: as §1, with “analysis.” for “analysis. Flow Cytometry was conducted using the using a FACSCalibur flow cytometer and following antibodies: CD31-FITC (clone WM59), CD34-FITC (8G12), CD41a-FITC/APC (clone HIPS), CD43-FITC/PE/APC (clone 1G10), CD45-APC (clone HI30), CD73-FITC/PE (clone AD2), CD144-FITC/PE/AlexaFluor647 (clone 55-7H1), CD235a-FITC/PE/APC (clone GA-R2), KDR-PE/AlexaFluor647 (clone 89106), PDGFRα-PE (clone aR1) (BD Biosciences), TRA-1-85-FITC/PE (clone TRA-1-85), and APLNR-APC (clone 72133) (R&D Systems). Sorting was conducted on a FACS Aria, as described previously 46. The purity of isolated populations was 92-95%. Recent studies have shown that adding TGF-β inhibitors after mesoderm specification but before endothelial development increases definitive hematopoietic differentiation.”
Flow Cytometry was conducted using the using a FACSCalibur flow cytometer and following antibodies: CD31-FITC (clone WM59), CD34-FITC (8G12), CD41a-FITC/APC (clone HIPS), CD43-FITC/PE/APC (clone 1G10), CD45-APC (clone HI30), CD73-FITC/PE (clone AD2), CD144-FITC/PE/AlexaFluor647 (clone 55-7H1), CD235a-FITC/PE/APC (clone GA-R2), KDR-PE/AlexaFluor647 (clone 89106), PDGFRα-PE (clone aR1) (BD Biosciences), TRA-1-85-FITC/PE (clone TRA-1-85), and APLNR-APC (clone 72133) (R&D Systems). Sorting was conducted on a FACS Aria, as described previously 46. The purity of isolated populations was 92-95%.

Experiment [2] relates to hESCs. Put plainly: Mesenchymo- (MB) and hemangioblast (HB) colony assay. The note with it: day 2 and day 3 cultures; TenC compared with ColIV. How it is done:
MB and HB were detected using serum-free CFC medium supplemented with FGF2 assay as previously described^11. Day 2 or 3 cultures were dissociated and prepared in a single-cell suspension using 1× TrypLE (Life Technologies) and 5,000 cells of the total culture were plated into the CFC media. MB and HB colonies were scored 12 days after plating the single-cell suspension.

The subject of experiment [3] is hESCs. Put plainly: Hematopoietic CFC assay. The note with it: day 8, TenC compared with ColIV. The procedure: Hematopoietic CFC were detected using serum-containing H4436 Methocult™ supplemented with human recombinant SCF, G-CSF, GM-CSF, IL-3, IL-6, and EPO (Stem Cell Technologies). Hematopoietic potential of AHPs was evaluated using serum-free SF H4236 methocult with added FGF2 (20 ng/ml), SCF (20 ng/mL), IL3 (10 ng/mL), IL6 (10 ng/mL), and EPO (2 U/mL) (Stem Cell Technologies) as previously described^6. 1000-10000 differentiated cells were plated into the CFC medium and the colonies were scored after 14 days of culture.

Experiment [4] deals with CD43+ cells collected from H1 hESCs. Nature of the experiment: T-cell differentiation of day 9 cultures on OP9-DLL4. The conditions noted are these: CD43+ cells from day 9 cultures on the matrix, OP9-DLL4 coculture. The procedure:
An OP9 cell line (OP9-DLL4) constitutively expressing human delta-like ligand 4 (DLL4) was established by our lab using lentivirus and was maintained similarly to OP9. After human pluripotent stem cells were differentiated for 9 days, the floating cells were collected, strained through a 70 μm cell strainer (BD Biosciences) and washed. Then, they were resuspended in T-cell differentiation media consisting of α-MEM (Gibco) supplemented with 20% FBS (Hyclone) supplemented with IL7 (5 ng/ml), Flt3L (5 ng/ml) and SCF ([…]). Then, they were plated on an OP9-DLL4 and cultured at 37° C. and 5% CO2. After 4 days, the cells were harvested using collagenase IV (Gibco) solution (1 mg/ml in DMEM/F12, Gibco) and 1× TrypLE (Invitrogen), and passaged onto a fresh layer of OP9-DLL4. After 3 days, the cells are passaged again. Subsequent passages are conducted every 7 days up to 4 weeks, after which the floating cells are collected for flow analysis and genomic DNA extraction for TCR rearrangement assay.

`NC(=O)c1ccc(-c2nc(-c3ccc4c(c3)OCO4)c(-c3ccccn3)[nH]2)cc1` [SB-431542]: the “development of PDGFRalpha-positive mesoderm cells” value in the experiment with H1 hESCs (10 μM added from day 2 to day 4, read on day 3) is on record as “significantly decreases”. Further, the “CD31+ differentiation” value with H1 hESCs (10 μM added from day 2 to day 4, read on day 4) is “increases”. Moreover, the “CD43+ population” value in the experiment on H1 hESCs (10 μM added from day 2 to day 4, read on day 9) was “continues to increase”. For the same compound, the “CD43+ hematopoietic progenitors” value with H1 hESCs (added from day 2 to day 4 only, day 8) is “significant increase”. In addition, the endothelial progenitors result in the experiment on H1 hESCs (added from day 2 to day 4 only, days 4 and 5) is “increases”.

As to “TenC: human Tenascin C extracellular matrix protein (GenBank CAA55309.1; Millipore CC065) used as culture substrate”, the “hematopoietic differentiation potential of CB hiPSCs” value with hESCs [1] (cord blood mononuclear cell-derived hiPSCs) was “restored hematopoietic differentiation potential of CB hiPSCs to the level seen with hESCs and FB hiPSCs”. Also, the “percentage of KDRhiAPLNR+PDGFRalphalo/− HVMPs cells” value with hESCs [1] (day 4, TenC compared with ColIV) is listed as “consistently higher”. Also, the “population of total CD144+ cells (HEPs, non-HEPs, AHPs)” value with hESCs [1] (day 5, compared to cultures differentiated on ColIV) is listed as “larger population”. For the same compound, the “CD43+ hematopoietic progenitors expansion” value in the experiment with hESCs [1] (day 8, TenC compared to ColIV) was “expanded significantly more”. Besides, the “APLNR+PDGFRalpha+ cells” value in the experiment with hESCs [1] (days 2 and 3, TenC compared with ColIV) is recorded as “significantly higher”. Moreover, in the experiment with hESCs [2], the “MB and HB colonies” value is “significantly higher”. Moreover, in the experiment on hESCs [3], the “GEMNI-CFC potential of cultures” value is reported as “significantly greater”. Besides, in the experiment with hESCs [3] (3 experiments, p<0.01), the “CFC potential of cultures” value is recorded as “higher CFC potential”. Also, in experiment [4], the “capacity of CD43+ cells to generate CD5+CD7+ lymphoid progenitors” value was “had a capacity”. Besides, in experiment [4] (week 3), the “progression toward CD4+CD8+ T lymphoid cells” value is “observed only from CD43^+ cells generated on TenC”.
